This note sets out measurements from patent publication US6713266B1 (Isodiagnostika Inc., priority 1998, dated 2004).

One test concerns MoAb CSA-1H6. The experiment in a line: Inhibition ELISA to the CSA-DVS-HSA conjugate, MoAb. Type of test: binding, mouse. On the procedure:
(§1) Inhibition ELISA Protocol:
(§2) 1. Use Falcon Pro-bind immunoplates.
(§3) 2. Dilute coating antigen to 1 μg/mL in carbonate-bicarbonate buffer. Add 100 μL per well and incubate overnight at 4° C.
(§4) 3. On the same day prepare inhibiting antigen tubes. Aliquot antibodies into glass test tubes. Prepare appropriate antigen concentration in ethanol and add to aliquoted antibody at 10 μL ethanol solution/250 μL antibody. Vortex tubes and incubate overnight at 4° C.
(§5) 4. Shake out wells and wash 3× with 200 μL PBS/0.05% TWEEN™ (polyoxyethylene-sorbitol) (v/v) per well.
(§6) 5. Add 200 μL blocking buffer per well (PBS/2% BSA (w/v)). Incubate 60 min at room temperature.
(§7) 7. Transfer contents of inhibition tubes to antigen-coated plate, 100 μL per well. Incubate 60 min at 37° C.
(§8) 9. Dilute alkaline phosphatase conjugated anti-mouse IgG (Pierce cat#31322) in PBS/0.1% TWEEN™ (polyoxyethylene-sorbitol) (v/v) to 1:5000 concentration. Add 100 μL per well and incubate at 37° C. for 60 min.
(§9) 11. […] Add 100 μL per well and incubate in the dark at room temperature. Absorbance can be read at 405 nm at approximately 15-min intervals.

The next test concerns MoAb CSA-2G9. The test is described as above. In kind it is binding, mouse. On the procedure: as §1, §2, §3, §4, §5, §6, §7, §8, §9
The test system of another test is MoAb AM1-2E10. The test is described as above. In kind it is binding, mouse. Here is the method:
as §1, §2, §3, §4, §5, §6, §7
(§10) 9. […] Add 100 μL per well and incubate at 37° C. for 60 min.
as §9

Another test relates to MoAb AM1-7F5. The test is described as above. In kind it is binding, mouse. Here is the method: as §1, §2, §3, §4, §5, §6, §7, §10, §9
The test system of test [1] is Mouse polyclonal sera (CSA-DVS-KLH immunogen). The test is described as follows: Inhibition ELISA, CSA-DVS-HSA coated plate, mouse polyclonal sera. In kind it is binding. Here is the method: as §1, §2, §3, §4, §5, §6, §7, §10, §9
A general note: In an ELISA, binding on a coated surface is turned into a signal by an enzyme label.

The subject of test [2] is Mouse polyclonal sera (AM1-DVS-KLH immunogens). The test is described as follows: Antigen panel (direct) ELISA, mouse polyclonal sera. In kind it is binding. Here is the method: (§11) 1. Use Falcon Pro-bind immunoplate.
(§12) 2. Dilute coating antigen (Ag) to 1.0 μg/mL in carbonate-bicarbonate buffer. Use glass tubes.
(§13) 3. Add 100 μL to each well of plate. Store overnight at 4° C.
as §5
(§14) 5. Add blocking buffer, 200 μL per well (PBS/2% BSA (w/v)). Incubate for 60 min at 37° C.
(§15) 7. Add 100 μL per well of test antibody appropriately diluted in PBS/0.1% Tween (v/v). Incubate 60 min at 37° C.
(§16) 9. Dilute alkaline phosphatase conjugated anti-mouse IgG (Pierce cat #31322) in PBS/0.1% TWEEN™ (polyoxyethylene-sorbitol) (v/v) to 1:2000 concentration. Add 100 μL per well and incubate at 37° C. for 60 min.
(§17) 10. Wash 3× as in step 4.
as §9

Test [3] has as its system Mouse polyclonal sera (AM19-9-DVS-KLH immunogens). The test is described as above. In kind it is binding. On the procedure: as §11, §12, §13, §5, §14, §15, §16, §17, §9
In test [4] the test system is Mouse polyclonal sera (AM9-9-DVS-KLH immunogen). The test is described as above. Type of test: binding. On the procedure: as §11, §12, §13, §5, §14, §15, §16, §17, §9
The subject of test [5] is Mouse polyclonal sera (CSA-DVS-KLH immunogen). Described as above. Particulars: KLH coated ELISA plates. In kind it is binding. On the procedure:
as §11, §12, §13, §5, §14, §15, §16, §17, §9

Test [6] concerns Mouse polyclonal sera (AM1-DVS-KLH immunogen). The experiment in a line: Inhibition ELISA to the CSA-DVS-HSA conjugate, mouse polyclonal sera. Type of test: binding. On the procedure:
as §1, §2, §3, §4, §5, §6, §7, §10, §9

Test [7] deals with Mouse polyclonal sera (AM19-1-DVS (1) - KLH immunogen). The test is described as follows: Antigen panel (direct) ELISA, mouse polyclonal sera. In kind it is binding. Particulars: Mice 1 and 2. Here is the method:
as §11, §12, §13, §5, §14, §15, §16, §17, §9
(§18) These serum samples were assayed by direct ELISA for antibody titre to specific haptens.

Test [8] has as its system Mouse polyclonal sera (AM19-1-DVS (2) - KLH immunogen). Described as above. Type of test: binding. Conditions: Mice 3 and 4. Here is the method:
as §11, §12, §13, §5, §14, §15, §16, §17, §9, §18

For test [9], the system named is Mouse polyclonal sera (AM19-1-DVS (1) - KLH immunogen). The test is described as follows: Inhibition ELISA, AM19-1-DVS (1) HSA coated plate, mouse polyclonal sera. Type of test: binding. Here is the method:
as §1, §2, §3, §4, §5, §6, §7, §10, §9

Test [10] deals with Mouse polyclonal sera (AM19-1-DVS (2) - KLH immunogen). The experiment in a line: Inhibition ELISA, AM19-1-DVS (2) HSA coated plate, mouse polyclonal sera. In kind it is binding. On the procedure: as §1, §2, §3, §4, §5, §6, §7, §10, §9
Test [11] has as its system Rabbit polyclonal sera (AM19-1-DVS-KLH (1) immunogen). The experiment in a line: Inhibition ELISA, AM19-1-DVS (1) HSA coated plate, rabbit polyclonal sera. Type of test: binding. Here is the method: as §1, §2, §3, §4, §5, §6, §7, §10, §9
The AM19-1-DVS (1) conjugate was also used to immunize rabbits.

The test system of test [12] is Mouse polyclonal sera (AM19-9-DVS-KLH immunogen). The experiment in a line: Inhibition ELISA, AM19-9-DVS-HSA coated plates, mouse polyclonal sera. In kind it is binding. On the procedure: as §1, §2, §3, §4, §5, §6, §7, §10, §9
Test [13] concerns Mouse polyclonal sera (AM9-9-DVS-KLH immunogen). The experiment in a line: Inhibition ELISA, AM19-9-DVS-HSA coated plate, mouse polyclonal sera. Type of test: binding. Here is the method:
as §1, §2, §3, §4, §5, §6, §7, §10, §9

Test [14] has as its system Mouse monoclonal antibody AM1-2E10. The test is described as follows: Antigen panel (direct) ELISA, MoAb tissue culture supernatant. Type of test: binding. On the procedure: as §11, §12, §13, §5, §14, §15, §16, §17, §9
The subject of test [15] is Mouse monoclonal antibody AM1-7F5. The description is as above. In kind it is binding. On the procedure: as §11, §12, §13, §5, §14, §15, §16, §17, §9
Test [16] has as its system Mouse monoclonal antibody CSA-1H6. Described as above. Type of test: binding. Here is the method: as §11, §12, §13, §5, §14, §15, §16, §17, §9
In test [17] the test system is Mouse monoclonal antibody CSA-2G9. The test is described as above. Type of test: binding. Here is the method: as §11, §12, §13, §5, §14, §15, §16, §17, §9
The subject of test [18] is Mouse monoclonal antibody AM19-1-7E12-1. Described as above. Type of test: binding. On the procedure:
as §11, §12, §13, §5, §14, §15, §16, §17, §9
(§19) Spleen cells from mice immunized with the AM19-1-DVS (1) conjugate have been used to prepare MoAb secreting hybridoma cells.

The test system of test [19] is Mouse monoclonal antibody AM19-1-7E12-2. The test is described as above. In kind it is binding. On the procedure:
as §11, §12, §13, §5, §14, §15, §16, §17, §9, §19

In a further test the test system is MoAb AM19-1-7E12-1. The experiment in a line: Inhibition ELISA with AM19-1-DVS (1) coated ELISA plates, MoAb. Type of test: binding, mouse. Particulars: AM19-1-7E12-1 TCS. Here is the method:
as §1, §2, §3, §4, §5, §6, §7, §10, §9

In another test the test system is MoAb AM19-1-7E12-2. The description is as above. In kind it is binding, mouse. Conditions: AM19-1-7F12-2. Here is the method: as §1, §2, §3, §4, §5, §6, §7, §10, §9
Where [20] appears, read: Mouse 1, inhibiting AG conc 0.156 μg/100 μL.
Where [21] appears, read: Mouse 1, inhibiting AG conc 0.313 μg/100 μL.
[22] abbreviates: Mouse 1, inhibiting AG conc 1.25 μg/100 μL.
The mark [23] stands for this setting: Mouse 1, inhibiting AG conc 5 μg/100 μL.
Where [24] appears, read: Mouse 1, inhibiting AG conc 10 μg/100 μL.
Setting [25] is: Mouse 2, inhibiting AG conc 0.156 μg/100 μL.
Setting [26] is: Mouse 2, inhibiting AG conc 0.313 μg/100 μL.
Where [27] appears, read: Mouse 2, inhibiting AG conc 1.25 μg/100 μL.
Setting [28] is: Mouse 2, inhibiting AG conc 5 μg/100 μL.
[29] abbreviates: Mouse 2, inhibiting AG conc 10 μg/100 μL.

With `C=CCC1C=C(C)CC(C)CC(OC)C2OC(O)(C(=O)C(=O)N3CCCCC3C(=O)OC(C(C)=CC3CCC(O)C(OC)C3)C(C)C(O)CC1=NO)C(C)CC2OC` (centres unmarked) [III], the “Percent Inhibition” value with MoAb CSA-1H6 (CSA-1H6, Table 24, CSA, CSG and CSA derivative inhibitors) was determined as 5.5%; with MoAb CSA-2G9 (CSA-2G9, Table 24, CSA, CSG and CSA derivative inhibitors) it was 21.9%; in the test with MoAb AM1-2E10 (AM1-2E10, Table 24, CSA, CSG and CSA derivative inhibitors), 17.8%; in the test on MoAb AM1-7F5 (AM1-7F5, Table 24, CSA, CSG and CSA derivative inhibitors), 16.6%.
As for “FK-DVS-KLH: FK-DVS-KLH conjugate used as inhibitor”, the Percent Inhibition in test [1] (setting [20]), in test [1] (setting [21]), in test [1] (setting [22]), in test [1] (setting [23]), in test [1] (setting [24]) and in test [1] (setting [25]) was 0% in each case. Besides, the Percent Inhibition in test [1] (setting [26]), in test [1] (setting [27]), in test [1] (setting [28]) and in [1] (setting [29]) was 0% each time.
Consider “KLH: keyhole limpet hemocyanin, protein carrier”, for which the Percent Inhibition in [1] (setting [20]), in test [1] (setting [21]), in [1] (setting [22]), in [1] (setting [23]), in test [1] (setting [24]) and in test [1] (setting [25]) was 0% in each case. Besides, the Percent Inhibition in test [1] (setting [26]) was 0%; in [1] (setting [27]), 0%; in test [1] (setting [28]) it was 0%; in [1] (setting [29]), 0%; in test [6] (Mouse 1), 8.9%; in test [6] (Mouse 2), 5.8%. Besides, the “Percent Inhibition” value in test [9] (Mouse 1), in test [9] (Mouse 2), in [10] (Mouse 3), in test [10] (Mouse 4), in test [11] and in test [12] (Mouse 5) was 0% in each case. Besides, the “Percent Inhibition” value in test [12] (Mouse 6) is reported as 0%; in [13] (Mouse 1), 12.3%; in test [13] (Mouse 2) it was 35.8%. Further, the “antibody response to the KLH carrier” value in test [2] and in test [5] was “significant response” throughout. The “antibody titres to the KLH carrier” value in test [3] was “Significant antibody titres”. Also, the “antibody titres to the KLH carrier protein” value in test [4], in test [7] and in test [8] was “significant antibody titres” each time. The Percent reactivity in test [14] (AM1-2E10, OD to test antigen / OD to CSA-DVS-HSA × 100) was found to be 3.9%; in test [15] (AM1-7F5, OD to test antigen / OD to CSA-DVS-HSA × 100), 0%; in test [16] (CSA-1H6, OD to test antigen / OD to CSA-DVS-HSA × 100), 0%; in test [17] (CSA-2G9, OD to test antigen / OD to CSA-DVS-HSA × 100) it was 0%; in test [18] (AM19-1-7E12-1, OD to test antigen / OD to AM19-1-DVS (1)-HSA × 100), 0%; in [19] (AM19-1-7E12-2, OD to test antigen / OD to AM19-1-DVS (1)-HSA × 100), 0%. Also, the OD in test [14] (AM1-2E10 TCS, coated test antigen) is 0.061; in test [15] (AM1-7F5 TCS, coated test antigen) it was 0; in [16] (CSA-1H6 TCS, coated test antigen), 0; in test [17] (CSA-2G9 TCS, coated test antigen), 0.026; in [18] (AM19-1-7E12-1 TCS, coated test antigen), 0.023; in [19] (AM19-1-7E12-2 TCS, coated test antigen), 0. Moreover, the “Percent Inhibition of TCS” value in the test with MoAb CSA-1H6 (CSA-1H6 TCS, Table 16, CSA-DVS-HSA conjugate) was determined as 0%; with MoAb CSA-2G9 (CSA-2G9 TCS, Table 16, CSA-DVS-HSA conjugate), 4.8%; with MoAb AM1-2E10 (AM1-2E10 TCS, Table 18, CSA-DVS-HSA coated plate) it was 0%; in the test with MoAb AM1-7F5 (AM1-7F51, TCS, Table 18, CSA-DVS-HSA coated plate), 22.5%; in the test with MoAb AM19-1-7E12-1, 3.8%; in the test with MoAb AM19-1-7E12-2 it was 4.3%.
